# Experimental data: patent US10208034B2, “Quinoline derivative” (ONO PHARMACEUTICAL CO., LTD., priority 2014, dated 2019)
# Columns and labels:
# KDR kinase = KDR kinase (Homo sapiens, UniProt P35968); experiment: Evaluation of kinase selectivity (KDR kinase IC50 versus Axl IC50, in vitro test); type: biochemical; settings: Axl selective inhibitory activity with respect to KDR kinase, ratio of IC50 values
# Description: Similar to Biological Example 1, values of 50% inhibition rate (IC50 value) with respect to the KDR kinase of the test compound was measured. The Axl selective inhibitory activity of the test compound with respect to KDR kinase was calculated based on the above-mentioned ratio of the IC50 values. As the test compounds, for the compounds of the present invention, the compounds of Examples 21, 42, 66, and 28 were used, and for the comparative compounds, the compound of Example 74 (Comparative compound B) and the compound of Example 92 (Comparative compound C) described in Patent Literature 5, having the following structure, were used.
# Axl enzyme = target: T1, Axl enzyme (Homo sapiens, UniProt P30530); experiment: Measurement of Axl inhibitory activity (LanthaScreen TR-FRET, in vitro test); type: biochemical; settings: Fluorescein-Poly GT substrate
# T1 sequence (P30530 26-894): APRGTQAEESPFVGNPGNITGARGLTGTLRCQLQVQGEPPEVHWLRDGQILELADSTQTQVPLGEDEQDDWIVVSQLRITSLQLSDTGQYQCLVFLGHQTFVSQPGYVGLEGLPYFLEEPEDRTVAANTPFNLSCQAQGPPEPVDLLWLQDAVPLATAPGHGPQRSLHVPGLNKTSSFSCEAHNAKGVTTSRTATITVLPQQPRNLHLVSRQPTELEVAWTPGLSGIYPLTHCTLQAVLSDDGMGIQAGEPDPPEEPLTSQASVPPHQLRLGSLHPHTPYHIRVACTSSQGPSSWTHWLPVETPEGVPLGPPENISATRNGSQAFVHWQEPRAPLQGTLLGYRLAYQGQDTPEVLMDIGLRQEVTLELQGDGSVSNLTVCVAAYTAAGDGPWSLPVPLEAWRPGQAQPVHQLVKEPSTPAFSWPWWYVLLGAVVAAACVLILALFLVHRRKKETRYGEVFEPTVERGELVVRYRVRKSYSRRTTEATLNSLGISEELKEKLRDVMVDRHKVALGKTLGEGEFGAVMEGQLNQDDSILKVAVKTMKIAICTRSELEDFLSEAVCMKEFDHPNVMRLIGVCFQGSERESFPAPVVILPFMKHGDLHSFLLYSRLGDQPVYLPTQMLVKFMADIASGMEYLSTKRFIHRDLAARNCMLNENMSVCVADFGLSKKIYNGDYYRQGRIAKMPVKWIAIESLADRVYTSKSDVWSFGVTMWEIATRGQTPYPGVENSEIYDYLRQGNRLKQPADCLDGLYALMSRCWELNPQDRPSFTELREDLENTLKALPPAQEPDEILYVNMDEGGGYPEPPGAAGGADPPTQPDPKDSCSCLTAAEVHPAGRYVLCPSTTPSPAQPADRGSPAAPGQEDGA
# Description: Axl enzyme inhibitory activity was measured by using LanthaScreen (registered trademark) system (Invitrogen) based on the attached instruction. The reagents used are shown below.
# Reaction buffer solution: a solution containing 50 mmol/L HEPES (pH7.5), 0.01% Brij35, 10 mmol/L MgCl2 and 1 mmol/L EGTA was prepared by using purified water.
# Test substance solution: a solution containing a test compound of 5-fold concentration with respect to the final concentration was prepared by 20-fold diluting a DMSO solution of test compound of each concentration with the reaction buffer solution.
# Enzyme solution: a solution containing 400 ng/mL Axl enzyme was prepared by using the reaction buffer solution.
# Substrate solution: a solution containing 45 μmol/L ATP and 500 nmol/L Fluorescein-Poly GT (Invitrogen) was prepared by using the reaction buffer solution.
# Detection solution: a solution containing 20 mM EDTA and 4 nM PY20 (Invitrogen) was prepared by using Dilution B (Invitrogen).
# A 10 mmol/L DMSO solution of the test compound was dispensed into a 96-well plate (Nunc), and, furthermore, a 3-fold dilution series was prepared using DMSO. In each well of the 96-well plate for measurement, 5 μL each of the reaction buffer solution containing DMSO was added to a Blank group and a medium group, and 5 μL of the test substance solution was added to the test substance group, respectively. Next, 10 μL/well of the reaction buffer solution was added to the Blank group, and 10 μL/well each of the enzyme solution was added to the medium group and the test compound group, followed by stirring at room temperature for 10 min. After the completion of stirring, 10 μL each of the substrate solution was added into each well, followed by stirring at room temperature with light shielded for one hour. After the completion of reaction, 25 μL each of the detection solution was added to each well, and stood still at room temperature with light shielded for 30 min. After standing sill, fluorescence intensity at 520 nm and 495 nm at the time of irradiation with exciting light of 340 nm was measured by using Analyst GT (Molecular Devices). The phosphorylation of the artificial substrate was quantified by Time-resolved Fluorescence Resonance Energy Transfer (TR-FRET). TR-FRET ratio was calculated by dividing 520 nm fluorescence signal by 495 nm fluorescence signal for each well, and the inhibition rate (%) in the test compound group was calculated based on the following mathematical formula. Inhibition rate (%)=[1−(TR-FRET ratio of test compound group−A)/(B−A)×100 [Math. 1] A: average value of TR-FRET ratios of Blank group B: average value of TR-FRET ratios of medium group
# Values of 50% inhibition rate (IC50 values) of the test compound were calculated from the inhibition curve based on the inhibition rate of the test compounds in each concentration.
# KDR kinase, sequence (P35968 20-1356): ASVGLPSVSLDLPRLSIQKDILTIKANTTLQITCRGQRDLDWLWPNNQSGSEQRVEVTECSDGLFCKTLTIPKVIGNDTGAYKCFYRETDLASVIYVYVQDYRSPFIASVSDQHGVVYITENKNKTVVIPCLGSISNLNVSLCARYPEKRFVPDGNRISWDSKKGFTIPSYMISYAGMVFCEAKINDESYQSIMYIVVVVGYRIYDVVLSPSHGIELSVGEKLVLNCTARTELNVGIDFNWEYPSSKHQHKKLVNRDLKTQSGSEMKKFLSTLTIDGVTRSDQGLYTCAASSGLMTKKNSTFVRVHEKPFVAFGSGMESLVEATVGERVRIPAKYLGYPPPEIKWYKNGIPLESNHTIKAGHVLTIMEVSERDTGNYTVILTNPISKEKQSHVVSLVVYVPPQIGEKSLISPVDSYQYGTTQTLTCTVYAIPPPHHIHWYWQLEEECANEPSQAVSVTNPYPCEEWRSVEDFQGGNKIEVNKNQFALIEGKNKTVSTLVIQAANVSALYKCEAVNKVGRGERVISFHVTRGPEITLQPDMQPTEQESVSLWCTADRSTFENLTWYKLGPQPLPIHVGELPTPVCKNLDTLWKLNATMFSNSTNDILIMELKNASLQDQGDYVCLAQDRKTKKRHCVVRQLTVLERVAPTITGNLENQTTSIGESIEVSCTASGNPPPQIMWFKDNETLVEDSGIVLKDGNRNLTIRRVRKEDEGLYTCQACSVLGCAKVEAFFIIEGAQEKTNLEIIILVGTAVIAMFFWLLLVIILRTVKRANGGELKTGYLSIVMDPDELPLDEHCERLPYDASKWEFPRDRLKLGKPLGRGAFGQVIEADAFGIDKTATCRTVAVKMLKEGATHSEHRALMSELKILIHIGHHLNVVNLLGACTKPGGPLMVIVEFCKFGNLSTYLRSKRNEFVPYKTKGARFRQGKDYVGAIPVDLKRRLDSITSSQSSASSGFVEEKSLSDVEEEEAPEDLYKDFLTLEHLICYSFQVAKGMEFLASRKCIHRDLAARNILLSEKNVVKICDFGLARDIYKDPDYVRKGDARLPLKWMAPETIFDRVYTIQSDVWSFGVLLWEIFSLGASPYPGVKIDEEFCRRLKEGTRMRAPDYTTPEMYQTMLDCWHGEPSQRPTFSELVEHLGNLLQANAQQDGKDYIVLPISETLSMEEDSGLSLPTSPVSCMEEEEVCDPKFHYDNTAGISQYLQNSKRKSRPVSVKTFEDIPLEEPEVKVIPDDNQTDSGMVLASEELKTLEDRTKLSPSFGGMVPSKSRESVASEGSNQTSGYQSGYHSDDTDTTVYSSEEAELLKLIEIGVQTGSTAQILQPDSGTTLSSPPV
KDR [IC50]/Ax1 [IC50] (KDR kinase),IC50 (Axl enzyme) [nM],Structure (SMILES)
about 149 times,1.5,"COc1cc2nccc(Oc3ccc(NC(=O)c4cc(C(C)=O)cn(-c5ccccc5)c4=O)nc3)c2cc1OC [Example 21, 5-acetyl-N-{5-[(6,7-dimethoxy-4-quinolinyl)oxy]-2-pyridinyl}-2-oxo-1-phenyl-1,2-dihydro-3-pyridinecarboxamide]"
about 294 times,1.3,"COc1cc2nccc(Oc3ccc(NC(=O)c4cc5ccncc5n(-c5ccccc5)c4=O)nc3)c2cc1OC [Example 28, N-{5-[(6,7-dimethoxy-4-quinolinyl)oxy]-2-pyridinyl}-2-oxo-1-phenyl-1,2-dihydro-1,7-naphthyridine-3-carboxamide]"
about 2857 times,3.5,"COc1cc2nccc(Oc3ccc(NC(=O)c4c5c(cn(-c6ccccc6)c4=O)C(=O)CCC5)nc3)c2cc1OC [Example 42, N-{5-[(6,7-dimethoxy-4-quinolinyl)oxy]-2-pyridinyl}-3,8-dioxo-2-phenyl-2,3,5,6,7,8-hexahydro-4-isoquinolinecarboxamide]"
about 1401 times,1.5,"COc1cc2nccc(Oc3ccc(NC(=O)c4cc5c(n(-c6ccccc6)c4=O)CCCNC5=O)nc3)c2cc1OC [Example 66, N-{5-[(6,7-dimethoxy-4-quinolinyl)oxy]-2-pyridinyl}-2,5-dioxo-1-phenyl-2,5,6,7,8,9-hexahydro-1H-pyrido[3,2-c]azepine-3-carboxamide]"
